This is an account of results in patent publication US6403625B1, “Fluorescent labeling reagents” (Daiichi Pure Chemicals Co., Ltd., priority 1998, dated 2002).

The nature of data set [1]: UV-vis absorption spectrum. To be noted: Table 2. In kind it is physicochemical. How it is done:
All the melting points were measured with a Yanagimoto-Micro apparatus and were not corrected. Nuclear magnetic resonance (^1H-NMR) spectrum of a protein was recorded by using a spectrometer, JEOL-FX-200 or JEOL-GSX-400. Chemical shifts were indicated as δ values (ppm) using tetramethylsilane as the internal standard. The fast atom bombardment mass spectrometric analysis (FAB) or the electron ionization mass spectrometric analysis (El) was performed by using a JEOL-SX-102A apparatus. […] The UV-vis spectrum was measured by using a Beckmann's 650-40 spectrometer. The fluorescence spectrum was recorded with a Hitachi's 650-40 luminescence spectrometer. […]
A DMF solution (250 μl ) of compound (6) of the present invention obtained in Example 1 (3.7 μmol/ml) was added to a 0.1 M phosphate buffer solution (pH 7.5, 1 ml) of BSA (2 mg). […] Then, the aqueous layer containing the labeled protein and the ethyl acetate layer were subjected to UV-vis and fluorescence analyses.
As a result, the ratios of the fluorescent substance in the aqueous layer and the ethyl acetate layer were 44% in BSA and 69% in IgG. The protein concentration in the labeled protein was measured by using a protein assay kit (Bio-Rad, CA), and the total ICG concentration in the labeled protein was determined from the absorbance (789 nm) of the DMF solution and the ε value of the ICD derivative. […]

A short description of data set [2]: Fluorescence spectrum (excitation/emission). Type of data set: physicochemical. How it is done: All the melting points were measured with a Yanagimoto-Micro apparatus and were not corrected. Nuclear magnetic resonance (^1H-NMR) spectrum of a protein was recorded by using a spectrometer, JEOL-FX-200 or JEOL-GSX-400. Chemical shifts were indicated as δ values (ppm) using tetramethylsilane as the internal standard. The fast atom bombardment mass spectrometric analysis (FAB) or the electron ionization mass spectrometric analysis (El) was performed by using a JEOL-SX-102A apparatus. […] The UV-vis spectrum was measured by using a Beckmann's 650-40 spectrometer. The fluorescence spectrum was recorded with a Hitachi's 650-40 luminescence spectrometer. The column chromatography was performed by using Merck's Silica Gel 60 (70-230 mesh). The compound numbers in Examples correspond to those in the aforementioned scheme.
A DMF solution (250 μl ) of compound (6) of the present invention obtained in Example 1 (3.7 μmol/ml) was added to a 0.1 M phosphate buffer solution (pH 7.5, 1 ml) of BSA (2 mg). The reaction mixture was allowed to stand for 30 minutes and subjected to Sephadex LH-20 column chromatography (1.5 cm×50 cm), and then eluted with a 0.1 M phosphate buffer solution (pH 7.5) to obtain a fraction of ICG-labeled protein. For IgG (2 mg), the labeling reaction with a DMF solution (250 μl) of ICG-ATT (6) (3.7 μmol/ml) was carried out in a similar manner to the above by using 0.1 M carbonate buffer (pH 9.5) instead of 0.1 M phosphate buffer (pH 7.5). The 0.1 M phosphate or the carbonate buffer solution (1 ml), containing the ICG-labeled protein (BSA or IgG) obtained by the Sephadex LH-20 column chromatography, was added to ethyl acetate (1 ml), and the mixture was vigorously stirred for 30 minutes to remove fluorescent compounds which bound to the protein through noncovalent bond. Then, the aqueous layer containing the labeled protein and the ethyl acetate layer were subjected to UV-vis and fluorescence analyses.
As a result, the ratios of the fluorescent substance in the aqueous layer and the ethyl acetate layer were 44% in BSA and 69% in IgG. The protein concentration in the labeled protein was measured by using a protein assay kit (Bio-Rad, CA), and the total ICG concentration in the labeled protein was determined from the absorbance (789 nm) of the DMF solution and the ε value of the ICD derivative. The ratios of ICG versus protein (ICG/protein) in each ICG-labeled protein were 21.5 (BSA) and 23.6 (IgG). […] From the foregoing results, it is readily understood that the compounds of the present invention are useful as near infrared fluorescent labeling agents for proteins and oligopeptides.

Regarding `CCN1C(=CC=CC=CC=CC2=[N+](CCCCCC(=O)N3CCSC3=S)c3ccc4ccccc4c3C2(C)C)C(C)(C)c2c1ccc1ccccc21.[Cl-]` [ICG-ATT (6), 2-[7-(1,3-Dihydro-1,1-dimethyl-3-ethylbenz[e]indolin-2-ylidene)-1,3,5-heptatrienyl]-1,1-dimethyl-3-[[6-[(1,3-thiazolidine-2-thion)-1-yl]-6-oxo]hexyl]-1H-benz[e]indolium Chloride], in data set [1], the “UV-vis abs (λmax)” value amounted to 789 nm. Moreover, in data set [2] (DMF), the λ em was determined as 830 nm and the λ ex came out at 765 nm. Further, in data set [2] (Table 2), the “fluorescent λem” value was found to be 830 nm and the “fluorescent λex” value is listed as 765 nm.
